US20240425490A1, “SULFAMIDE RIBONUCLEOTIDE REDUCTASE (RNR) INHIBITORS AND USES THEREOF” (Boundless Bio, Inc., priority 2021, published 2024)

Target: T1, RNR (RNR1:RNR2 1:1) (Homo sapiens, UniProt P23921)
T1 sequence (P23921 1-792): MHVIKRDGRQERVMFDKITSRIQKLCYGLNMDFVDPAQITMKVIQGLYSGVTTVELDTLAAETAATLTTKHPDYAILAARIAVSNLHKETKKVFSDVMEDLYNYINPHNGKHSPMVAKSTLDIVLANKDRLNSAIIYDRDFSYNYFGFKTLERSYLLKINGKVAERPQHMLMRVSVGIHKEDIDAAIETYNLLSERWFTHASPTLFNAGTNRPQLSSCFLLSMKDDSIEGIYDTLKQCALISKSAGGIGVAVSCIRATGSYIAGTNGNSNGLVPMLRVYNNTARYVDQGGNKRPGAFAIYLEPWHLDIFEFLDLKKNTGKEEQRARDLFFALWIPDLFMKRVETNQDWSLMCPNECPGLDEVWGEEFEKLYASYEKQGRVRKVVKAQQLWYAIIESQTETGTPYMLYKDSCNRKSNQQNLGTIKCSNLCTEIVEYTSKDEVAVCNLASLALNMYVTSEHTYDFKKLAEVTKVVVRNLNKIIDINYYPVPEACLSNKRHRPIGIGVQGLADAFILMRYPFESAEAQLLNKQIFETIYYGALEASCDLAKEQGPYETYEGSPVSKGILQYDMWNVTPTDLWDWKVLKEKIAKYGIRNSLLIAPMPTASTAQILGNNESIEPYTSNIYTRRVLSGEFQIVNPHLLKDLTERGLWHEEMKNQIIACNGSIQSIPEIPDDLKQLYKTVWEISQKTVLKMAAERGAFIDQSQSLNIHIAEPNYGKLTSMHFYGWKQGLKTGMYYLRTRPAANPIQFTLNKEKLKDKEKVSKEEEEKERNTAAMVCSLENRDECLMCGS
Assay: RNR enzyme activity, rapid-fire mass spectrometry (RFMS) assay
Assay type: biochemical
Conditions: RNR 50 nM, CDP 5 μM, ATP 1 mM, 37° C., 45 min, compounds screened up to 50 μM, read-out: RF/MS IC50
In short: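 Human RNR1:RNR2 (1:1, 50 nM) pre-incubated 15 min at room temperature with compound, then reacted with 5 μM CDP and 1 mM ATP, no NADPH, for 45 min at 37 °C. Stopped with 6% HCOOH; turnover read by rapid-fire mass spectrometry; Triapine and hydroxyurea as reference compounds.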

| SMILES | IC50 [nM] |
| --- | --- |
| Cc1ccc(F)c([C@@H](C)[C@H](NS(=O)(=O)N2CC3C(C2)C3(C)C)c2n[nH]c(=O)o2)c1C (stereo partly drawn) [Example 102, N-((1S,2R)-2-(6-fluoro-2,3-dimethylphenyl)-1-(5-oxo-4,5-dihydro-1,3,4-oxadiazol-2-yl)propyl)-6,6-dimethyl-3-azabicyclo[3.1.0]hexane-3-sulfonamide] | 100 to 1000 |
| Cc1ccc(F)c(C(C)[C@H](NS(=O)(=O)N2CCC(CN3CCCC3=O)CC2)c2n[nH]c(=O)o2)c1C (stereo partly drawn) [Example 65, N-((1S)-2-(6-fluoro-2,3-dimethylphenyl)-1-(5-oxo-4,5-dihydro-1,3,4-oxadiazol-2-yl)propyl)-4-((2-oxopyrrolidin-1-yl)methyl)piperidine-1-sulfonamide] | 100 to 1000 |
| Cc1ccc(F)c(C(C)[C@H](NS(=O)(=O)N2CCC(c3ncc[nH]3)CC2)c2n[nH]c(=O)o2)c1C (stereo partly drawn) [Example 90, N-((1S)-2-(6-fluoro-2,3-dimethylphenyl)-1-(5-oxo-4,5-dihydro-1,3,4-oxadiazol-2-yl)propyl)-4-(1H-imidazol-2-yl)piperidine-1-sulfonamide] | 1000 to 10000 |
| Cc1ccc(F)c([C@H](C)[C@H](NS(=O)(=O)N2CCCC(C(C)O)C2)c2n[nH]c(=O)o2)c1C (mixture of isomers) [Example 28, rac-N-((1R,2R)-2-(6-fluoro-2,3-dimethylphenyl)-1-(5-oxo-4,5-dihydro-1,3,4-oxadiazol-2-yl)propyl)-3-(1-hydroxyethyl)piperidine-1-sulfonamide] | 10000 to 100000 |
| Cc1ccc(F)c([C@@H](C)[C@H](NS(=O)(=O)N2CCC(F)(F)CC2)c2n[nH]c(=O)o2)c1C [Example 1, 4,4-difluoro-N-((1S,2R)-2-(6-fluoro-2,3-dimethylphenyl)-1-(5-oxo-4,5-dihydro-1,3,4-oxadiazol-2-yl)propyl)piperidine-1-sulfonamide] | 100 to 1000 |
| Cc1ccc(F)c([C@H](C)[C@H](NS(=O)(=O)N2CCC(Oc3ccccc3)CC2)c2n[nH]c(=O)o2)c1C [Example 54, N-((1S,2S)-2-(6-fluoro-2,3-dimethylphenyl)-1-(5-oxo-4,5-dihydro-1,3,4-oxadiazol-2-yl)propyl)-4-phenoxypiperidine-1-sulfonamide] | 10000 to 100000 |
| Cc1ccc(F)c([C@H](C)[C@H](NS(=O)(=O)N2CCC(C3CCCCC3)CC2)c2n[nH]c(=O)o2)c1C [Example 10, 4-cyclohexyl-N-((1S,2S)-2-(6-fluoro-2,3-dimethylphenyl)-1-(5-oxo-4,5-dihydro-1,3,4-oxadiazol-2-yl)propyl)piperidine-1-sulfonamide] | 10000 to 100000 |
| Cc1ccc(F)c([C@H](C)[C@H](NS(=O)(=O)N2CCC3(CCCN(C)C3)CC2)c2n[nH]c(=O)o2)c1C [Example 84, N-((1S,2S)-2-(6-fluoro-2,3-dimethylphenyl)-1-(5-oxo-4,5-dihydro-1,3,4-oxadiazol-2-yl)propyl)-2-methyl-2,9-diazaspiro[5.5]undecane-9-sulfonamide] | 10000 to 100000 |
| C#CC1CCN(S(=O)(=O)N[C@H](c2n[nH]c(=O)o2)[C@@H](C)c2c(F)ccc(C)c2C)CC1 [Example 47, 4-ethynyl-N-((1S,2S)-2-(6-fluoro-2,3-dimethylphenyl)-1-(5-oxo-4,5-dihydro-1,3,4-oxadiazol-2-yl)propyl)piperidine-1-sulfonamide] | 10000 to 100000 |
| Cc1ccc(F)c([C@@H](C)[C@H](NS(=O)(=O)N2CCC3(CCCCC3)CC2)c2n[nH]c(=O)o2)c1C [Example 87, N-((1S,2R)-2-(6-fluoro-2,3-dimethylphenyl)-1-(5-oxo-4,5-dihydro-1,3,4-oxadiazol-2-yl)propyl)-3-azaspiro[5.5]undecane-3-sulfonamide] | 100 to 1000 |
| Cc1ccc(F)c([C@H](C)[C@H](NS(=O)(=O)N2CC(C)CC(C)C2)c2n[nH]c(=O)o2)c1C (stereo partly drawn) [Example 122, N-((1S,2S)-2-(6-fluoro-2,3-dimethylphenyl)-1-(5-oxo-4,5-dihydro-1,3,4-oxadiazol-2-yl)propyl)-3,5-dimethylpiperidine-1-sulfonamide] | 1000 to 10000 |
| Cc1ccc(F)c([C@@H](C)[C@H](NS(=O)(=O)N2CCC3(CC2)OCCCO3)c2n[nH]c(=O)o2)c1C [Example 85, N-((1S,2R)-2-(6-fluoro-2,3-dimethylphenyl)-1-(5-oxo-4,5-dihydro-1,3,4-oxadiazol-2-yl)propyl)-1,5-dioxa-9-azaspiro[5.5]undecane-9-sulfonamide] | 100 to 1000 |
| Cc1ccc(F)c([C@H](C)[C@H](NS(=O)(=O)N2CCC(c3nncn3C)CC2)c2n[nH]c(=O)o2)c1C [Example 53, N-((1S,2S)-2-(6-fluoro-2,3-dimethylphenyl)-1-(5-oxo-4,5-dihydro-1,3,4-oxadiazol-2-yl)propyl)-4-(4-methyl-4H-1,2,4-triazol-3-yl)piperidine-1-sulfonamide] | 10000 to 100000 |
| Cc1ccc(F)c(C(C)[C@H](NS(=O)(=O)N2CCC3(CC2)OCc2ccccc23)c2n[nH]c(=O)o2)c1C (stereo partly drawn) [Example 73, N-((1S)-2-(6-fluoro-2,3-dimethylphenyl)-1-(5-oxo-4,5-dihydro-1,3,4-oxadiazol-2-yl)propyl)-3H-spiro[isobenzofuran-1,4′-piperidine]-1′-sulfonamide] | 100 to 1000 |
| Cc1ccc(F)c(C(C)[C@H](NS(=O)(=O)N2CCC(NC(=O)C(C)(C)C)CC2)c2n[nH]c(=O)o2)c1C (stereo partly drawn) [Example 75, N-(1-(N-((1S)-2-(6-fluoro-2,3-dimethylphenyl)-1-(5-oxo-4,5-dihydro-1,3,4-oxadiazol-2-yl)propyl)sulfamoyl)piperidin-4-yl)pivalamide] | 1000 to 10000 |
| CCN(CC1CC1)S(=O)(=O)N[C@H](c1n[nH]c(=O)o1)[C@H](C)c1c(F)ccc(C)c1C [Example 118] | 1000 to 10000 |
| Cc1ccc(F)c([C@@H](C)[C@H](NS(=O)(=O)N2CCCC(C)(C)C2)c2n[nH]c(=O)o2)c1C [Example 117, N-((1S,2R)-2-(6-fluoro-2,3-dimethylphenyl)-1-(5-oxo-4,5-dihydro-1,3,4-oxadiazol-2-yl)propyl)-3,3-dimethylpiperidine-1-sulfonamide] | 1000 to 10000 |
| Cc1ccc(F)c(C(C)[C@H](NS(=O)(=O)N2CCC(C3NC(=O)NC3=O)CC2)c2n[nH]c(=O)o2)c1C (stereo partly drawn) [Example 60, 4-(2,5-dioxoimidazolidin-4-yl)-N-((1S)-2-(6-fluoro-2,3-dimethylphenyl)-1-(5-oxo-4,5-dihydro-1,3,4-oxadiazol-2-yl)propyl)piperidine-1-sulfonamide] | 100 to 1000 |
| CC(=O)[C@H]1CCCCN1S(=O)(=O)N[C@H](c1n[nH]c(=O)o1)[C@H](C)c1c(F)ccc(C)c1C [Example 19, (R)-2-acetyl-N-((1S,2R)-2-(6-fluoro-2,3-dimethylphenyl)-1-(5-oxo-4,5-dihydro-1,3,4-oxadiazol-2-yl)propyl)piperidine-1-sulfonamide] | 1000 to 10000 |
| Cc1ccc(F)c(C(C)[C@H](NS(=O)(=O)N2CCN(C)CC2)c2n[nH]c(=O)o2)c1C (stereo partly drawn) [Example 139, N-((1S)-2-(6-fluoro-2,3-dimethylphenyl)-1-(5-oxo-4,5-dihydro-1,3,4-oxadiazol-2-yl)propyl)-4-methylpiperazine-1-sulfonamide] | 100 to 1000 |
| Cc1ccc(F)c(C(C)[C@H](NS(=O)(=O)N2CCC(Cl)(C#N)CC2)c2n[nH]c(=O)o2)c1C (stereo partly drawn) [Example 101, 4-chloro-4-cyano-N-((1S)-2-(6-fluoro-2,3-dimethylphenyl)-1-(5-oxo-4,5-dihydro-1,3,4-oxadiazol-2-yl)propyl)piperidine-1-sulfonamide] | 100 to 1000 |
| Cc1ccc(F)c(C(C)[C@H](NS(=O)(=O)N2CCC(CN(C)C)CC2)c2n[nH]c(=O)o2)c1C (stereo partly drawn) [Example 31, 4-((dimethylamino)methyl)-N-((1S)-2-(6-fluoro-2,3-dimethylphenyl)-1-(5-oxo-4,5-dihydro-1,3,4-oxadiazol-2-yl)propyl)piperidine-1-sulfonamide] | 10000 to 100000 |
| Cc1ccc(F)c([C@@H](C)[C@H](NS(=O)(=O)N2CCC3(CCNC3=O)CC2)c2n[nH]c(=O)o2)c1C [Example 59, N-((1S,2R)-2-(6-fluoro-2,3-dimethylphenyl)-1-(5-oxo-4,5-dihydro-1,3,4-oxadiazol-2-yl)propyl)-1-oxo-2,8-diazaspiro[4.5]decane-8-sulfonamide] | 10000 to 100000 |
| COCC1CCN(S(=O)(=O)N[C@H](c2n[nH]c(=O)o2)[C@H](C)c2c(F)ccc(C)c2C)CC1 [Example 127, N-((1S,2R)-2-(6-fluoro-2,3-dimethylphenyl)-1-(5-oxo-4,5-dihydro-1,3,4-oxadiazol-2-yl)propyl)-4-(methoxymethyl)piperidine-1-sulfonamide] | 100 to 1000 |
| Cc1ccc(F)c([C@H](C)[C@H](NS(=O)(=O)N2CCC3(CC2)OCCCO3)c2n[nH]c(=O)o2)c1C [Example 86, N-((1S,2S)-2-(6-fluoro-2,3-dimethylphenyl)-1-(5-oxo-4,5-dihydro-1,3,4-oxadiazol-2-yl)propyl)-1,5-dioxa-9-azaspiro[5.5]undecane-9-sulfonamide] | 1000 to 10000 |
